From patent US20230021483A1, “[…] […] METHOD AND CLASSIFICATION OF PHARMACEUTICAL COMPONENTS BY USING TRANSCRIPTOMES” (National Institutes of Biomedical Innovation, Health and …, priority 2016, published 2023)

Tested on: adjuvant-associated biological themes in LV, SP, LN
Summary of the method: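 Enrichment score S sums −log(p) over consensus themes whose names contain a pre-selected adjuvant-associated term such as "stress" or "cytokine". Consensus requires a theme in all three mice of a group, p<0.05. Themes come from TargetMine analysis of genes with eij/ei(c)>2.0, Fisher's exact test, Holm-Bonferroni-corrected.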

K3: B class CpG ODN (ATCGACTCTCGAGCGTTCTC), TLR9 ligand (chemistry not given here)
tissue damage-associated annotations (cell death, wounding) in LNs (LN, i.d., fold change >2): did not induce cell death and wounding in LNs | IFN alpha, GO annotation line 1 of 5 (LV, ID): 0 | IFN alpha, GO annotation line 2 of 5 (LV, ID): 0 | IFN alpha: cellular response to interferon-alpha (LV, ID): 0 | IFN alpha: positive regulation of interferon-alpha production (LV, ID): 0 | IFN alpha: regulation of interferon-alpha production (LV, ID): 0 | IFN beta: cellular response to interferon-beta (LV, ID): 0 | IFN beta: interferon-beta production (LV, ID): 0 | IFN beta: positive regulation of interferon-beta production (LV, ID): 0 | IFN beta: regulation of interferon-beta production (LV, ID): 0 | IFN beta: response to interferon-beta (LV, ID): 0 | IFN gamma: cellular response to interferon-gamma (LV, ID): 0 | IFN gamma: interferon-gamma production (LV, ID): 0 | IFN gamma: regulation of interferon-gamma production (LV, ID): 0 | IFN gamma: response to interferon-gamma (LV, ID): 0 | NF-kappa B signaling pathway, GO annotation line 1 of 4 (LV, ID): 6.19 | NF-kappa B signaling pathway, GO annotation line 2 of 4 (LV, ID): 0 | NF-kappa B signaling pathway, GO annotation line 3 of 4 (LV, ID): 0 | NF-kappa B signaling pathway, GO annotation line 4 of 4 (LV, ID): 0 | TNF signaling pathway (LV, ID): 14.5 | adaptive immune response, GO annotation line 1 of 5 (LV, ID): 0 | adaptive immune response, GO annotation line 2 of 5 (LV, ID): 0 | adaptive immune response, GO annotation line 3 of 5 (LV, ID): 0 | adaptive immune response, GO annotation line 4 of 5 (LV, ID): 0 | adaptive immune response, GO annotation line 5 of 5 (LV, ID): 0 | apoptosis, GO annotation line 1 of 8 (LV, ID): 15.7 | apoptosis, GO annotation line 2 of 8 (LV, ID): 10.1 | apoptosis, GO annotation line 3 of 8 (LV, ID): 10.3 | apoptosis, GO annotation line 4 of 8 (LV, ID): 0 | apoptosis, GO annotation line 5 of 8 (LV, ID): 5.99 | apoptosis, GO annotation line 6 of 8 (LV, ID): 3.19 | apoptosis, GO annotation line 7 of 8 (LV, ID): 0 | apoptosis, GO annotation line 8 of 8 (LV, ID): 0 | cell death, GO annotation line 1 of 9 (LV, ID): 18.3 | cell death, GO annotation line 2 of 9 (LV, ID): 13.9 | cell death, GO annotation line 3 of 9 (LV, ID): 14.9 | cell death, GO annotation line 4 of 9 (LV, ID): 10.5 | cell death, GO annotation line 5 of 9 (LV, ID): 10.9 | cell death, GO annotation line 6 of 9 (LV, ID): 7.25 | cell death, GO annotation line 7 of 9 (LV, ID): 6.67 | cell death, GO annotation line 8 of 9 (LV, ID): 0 | cell death, GO annotation line 9 of 9 (LV, ID): 0 | chemokine, GO annotation line 1 of 4 (LV, ID): 0 | chemokine, GO annotation line 2 of 4 (LV, ID): 0 | chemokine, GO annotation line 3 of 4 (LV, ID): 0 | chemokine, GO annotation line 4 of 4 (LV, ID): 0 | chemotaxis, GO annotation line 1 of 11 (LV, ID): 0 | chemotaxis, GO annotation line 2 of 11 (LV, ID): 0 | chemotaxis, GO annotation line 3 of 11 (LV, ID): 0 | chemotaxis, GO annotation line 4 of 11 (LV, ID): 0 | chemotaxis, GO annotation line 5 of 11 (LV, ID): 0 | chemotaxis, GO annotation line 6 of 11 (LV, ID): 0 | chemotaxis, GO annotation line 7 of 11 (LV, ID): 0 | chemotaxis, GO annotation line 8 of 11 (LV, ID): 0 | chemotaxis, GO annotation line 9 of 11 (LV, ID): 0 | chemotaxis, GO annotation line 10 of 11 (LV, ID): 0 | chemotaxis, GO annotation line 11 of 11 (LV, ID): 0 | cytokine, GO annotation line 1 of 17 (LV, ID): 0 | cytokine, GO annotation line 2 of 17 (LV, ID): 0 | cytokine, GO annotation line 3 of 17 (LV, ID): 0 | cytokine, GO annotation line 4 of 17 (LV, ID): 0 | cytokine, GO annotation line 5 of 17 (LV, ID): 0 | cytokine, GO annotation line 6 of 17 (LV, ID): 0 | cytokine, GO annotation line 7 of 17 (LV, ID): 0 | cytokine, GO annotation line 8 of 17 (LV, ID): 0 | cytokine, GO annotation line 9 of 17 (LV, ID): 0 | cytokine, GO annotation line 10 of 17 (LV, ID): 0 | cytokine, GO annotation line 11 of 17 (LV, ID): 0 | cytokine, GO annotation line 12 of 17 (LV, ID): 0 | cytokine, GO annotation line 13 of 17 (LV, ID): 0 | cytokine, GO annotation line 14 of 17 (LV, ID): 0 | cytokine, GO annotation line 15 of 17 (LV, ID): 0 | cytokine, GO annotation line 16 of 17 (LV, ID): 0 | cytokine, GO annotation line 17 of 17 (LV, ID): 0 | defense response, GO annotation line 1 of 11 (LV, ID): 0 | defense response, GO annotation line 2 of 11 (LV, ID): 0 | defense response, GO annotation line 3 of 11 (LV, ID): 0 | defense response, GO annotation line 4 of 11 (LV, ID): 0 | defense response, GO annotation line 5 of 11 (LV, ID): 0 | defense response, GO annotation line 6 of 11 (LV, ID): 0 | defense response, GO annotation line 7 of 11 (LV, ID): 0 | defense response, GO annotation line 8 of 11 (LV, ID): 0 | defense response, GO annotation line 9 of 11 (LV, ID): 0 | defense response, GO annotation line 10 of 11 (LV, ID): 0 | defense response, GO annotation line 11 of 11 (LV, ID): 0 | immune response, GO annotation line 1 of 8 (LV, ID): 0 | immune response, GO annotation line 2 of 8 (LV, ID): 0 | immune response, GO annotation line 3 of 8 (LV, ID): 0 | immune response, GO annotation line 4 of 8 (LV, ID): 0 | immune response, GO annotation line 5 of 8 (LV, ID): 0 | immune response, GO annotation line 6 of 8 (LV, ID): 0 | immune response, GO annotation line 7 of 8 (LV, ID): 0 | immune response, GO annotation line 8 of 8 (LV, ID): 0 | inflammatory response, GO annotation line 1 of 5 (LV, ID): 0 | inflammatory response, GO annotation line 2 of 5 (LV, ID): 0 | inflammatory response, GO annotation line 3 of 5 (LV, ID): 0 | inflammatory response, GO annotation line 4 of 5 (LV, ID): 0 | inflammatory response, GO annotation line 5 of 5 (LV, ID): 0 | innate immune response, GO annotation line 1 of 6 (LV, ID): 0 | innate immune response, GO annotation line 2 of 6 (LV, ID): 0 | innate immune response, GO annotation line 3 of 6 (LV, ID): 0 | innate immune response, GO annotation line 4 of 6 (LV, ID): 0 | innate immune response, GO annotation line 5 of 6 (LV, ID): 0 | innate immune response, GO annotation line 6 of 6 (LV, ID): 0 | interleukin-6: interleukin-6 production (LV, ID): 0 | interleukin-6: positive regulation of interleukin-6 production (LV, ID): 0 | interleukin-6: regulation of interleukin-6 production (LV, ID): 0 | interleukin-12: interleukin-12 production (LV, ID): 0 | interleukin-12: positive regulation of interleukin-12 production (LV, ID): 0 | interleukin-12: regulation of interleukin-12 production (LV, ID): 0 | migration, GO annotation line 1 of 10 (LV, ID): 0 | migration, GO annotation line 2 of 10 (LV, ID): 0 | migration, GO annotation line 3 of 10 (LV, ID): 0 | migration, GO annotation line 4 of 10 (LV, ID): 0 | migration, GO annotation line 5 of 10 (LV, ID): 0 | migration, GO annotation line 6 of 10 (LV, ID): 0 | migration, GO annotation line 7 of 10 (LV, ID): 0 | migration, GO annotation line 8 of 10 (LV, ID): 0 | migration, GO annotation line 9 of 10 (LV, ID): 0 | migration, GO annotation line 10 of 10 (LV, ID): 0 | stress, GO annotation line 1 of 3 (LV, ID): 12.9 | stress, GO annotation line 2 of 3 (LV, ID): 0 | stress, GO annotation line 3 of 3 (LV, ID): 0 | wounding, GO annotation line 1 of 3 (LV, ID): 0 | wounding, GO annotation line 2 of 3 (LV, ID): 0 | wounding, GO annotation line 3 of 3 (LV, ID): 0
